From patent US5633345A, “Cyclic peptides” (priority 1992, dated 1997)

Experiments:
Experiment in all cases: Antifungal activity, MIC by agar dilution method
C. grabrata TIMM 1062 = type: cell-based; details: Sabouraud-dextrose agar medium, 30° C. for 2 days
Experimental: (§1) The minimum inhibitory concentration (MIC) values were determined after incubation at 30° C. for 2 days.

C. kefyr TIMM 0301 = type: cell-based; details: Sabouraud-dextrose agar medium, 30° C. for 2 days
Experimental: as §1

[1] = test system: Cryptococcus neoformans TIMM 0354; type: cell-based; details: Sabouraud-dextrose agar medium, 30° C. for 2 days
Experimental: as §1

[2] = test system: Candida albicans TIMM 0136; type: cell-based; details: Sabouraud-dextrose agar medium, 30° C. for 2 days
Experimental: as §1

C. albicans TIMM 0171 = type: cell-based, Candida albicans; details: for MIC: C. albicans TIMM 0171, Sabouraud-dextrose agar medium, 30° C. for 2 days
Experimental: as §1

Substance | MIC (C. grabrata TIMM 1062) [µg/mL] | MIC (C. kefyr TIMM 0301) [µg/mL] | MIC [1] [µg/mL] | MIC [2] [µg/mL] | MIC (C. albicans TIMM 0171) [µg/mL] | activity against Candida albicans TIMM 0171 compared with compound 1 (C. albicans TIMM 0171; comparison in words)
cyclo(L-GluOR-L-MeVal-L-Leu-L-βHOMeVal-D-Hmp-L-MeVal-L-Phe-L-MePhe-L- Pro) (R: trans-3-hexenyl) [Compound 35] | 0.39 | 1.56 | > 25 | 0.20 | 0.78 | –
cyclo(L-GluOR-L-MeVal-L-Leu-L-βHOMeVal-D-Hmp-L-MeVal-L-Phe-L-MePhe-L- Pro) (R: n-decyl) [Compound 33] | > 25 | > 25 | > 25 | 1.56 | 1.56 | –
cyclo(L-GluOR-L-MeVal-L-Leu-L-βHOMeVal-D-Hmp-L-MeVal-L-Phe-L-MePhe-L- Pro) (R: n-octyl) [Compound 32] | 1.56 | 6.25 | > 25 | 0.78 | 0.78 | –
cyclo(L-RONva-L-MeVal-L-Leu-L-βHOMeVal-D-Hmp-L-MeVal-L-Phe-L-MePhe-L- Pro) (R: n-hexanoyl) [Compound 37] | 0.39 | 0.78 | 12.5 | 0.10 | 0.10 | –
cyclo(L-GluOR-L-MeVal-L-Leu-L-βHOMeVal-D-Hmp-L-MeVal-L-Phe-L-MePhe-L- Pro) (R: cis-3-hexenyl) [Compound 34] | 0.39 | 0.78 | > 25 | 0.20 | 0.10 | –
cyclo(L-GluOR-L-MeVal-L-Leu-L-βHOMeVal-D-Hmp-L-MeVal-L-Phe-L-MePhe-L- Pro) (R: n-hexyl) [Compound 31] | 1.56 | 3.12 | > 25 | 0.39 | 0.20 | –
cyclo(L-aIle-L-MeVal-L-GluOR-L-βHOMeVal-D-Hmp-L-MeVal-L-Phe-L-MePhe-L-Pro) (R: cHex) [Compound 38] | 1.56 | 3.12 | > 25 | 0.20 | 0.013 | higher activity against Candida albicans TIMM 0171 than compound 1
cyclo(L-aIle-L-ROMeNva-L-Leu-L-βHOMeVal-D-Hmp-L-MeVal-L-Phe-L-MePhe-L-Pro) (R: Bzl) [Compound 27] | > 25 | 3.12 | > 25 | 0.78 | 0.78 | –
